Measurements reported in patent publication US4022889A, “Therapeutic compositions of antibiotic U-44,590 and methods for using the same” (The Upjohn Company, priority 1975, dated 1977).
In brackets after ≈: the same amount, converted by molar mass. Like-named read-outs stand apart in the source and are kept apart here.

Experiments:
[1] = system: Diplococcus pneumoniae; assay: Antibacterial activity, standard agar dilution test; format: cell-based; settings: Streptococcus pneumoniae, 16 h, 1 strain, Brain Heart Infusion, 37° C., 16-18 hours, read-out: Inhibition
Description: (§1) The above antibacterial spectrum was obtained by a standard agar dilution test with the following media and conditions:
(§2) Difco Brain Heart Infusion Medium was used for all test bacteria except P. multocida and Hemophilus species which were grown in Difco Blood Agar Base with 5% defibrinated rabbit blood. All were grown aerobically at 37° C. (except Hemophilus species, grown anaerobically) 16-18 hours. Inocula were grown overnite (16-18 hours) at 37° C. and used to seed agar at the rate of 0.025 ml. of 10^^-3 dilution (approximately 2500 to 25,000 bacteria per drop of inoculum).

[2] = system: Pasteurella multocida; assay: as above; format: cell-based; settings: 16 h, 1 strain, Blood Agar Base with 5% defibrinated rabbit blood, 37° C., 16-18 hours, read-out: Inhibition
Description: as §1, §2

[3] = system: Proteus mirabilis; assay: as above; format: cell-based; settings: 16 h, 3 strains, Brain Heart Infusion, 37° C., 16-18 hours, read-out: Inhibition
Description: as §1, §2

[4] = system: Proteus morgani; assay: as above; format: cell-based; settings: 16 h, 3 strains, Brain Heart Infusion, 37° C., 16-18 hours, read-out: Inhibition
Description: as §1, §2

[5] = system: Proteus vulgaris; assay: as above; format: cell-based; settings: 16 h, 3 strains, Brain Heart Infusion, 37° C., 16-18 hours, read-out: Inhibition
Description: as §1, §2

[6] = system: Pseudomonas aeruginosa; assay: as above; format: cell-based; settings: 16 h, 5 strains, Brain Heart Infusion, 37° C., 16-18 hours, read-out: Inhibition
Description: as §1, §2

[7] = system: Serratia marcescens; assay: as above; format: cell-based; settings: 16 h, 2 strains, Brain Heart Infusion, 37° C., 16-18 hours, read-out: Inhibition
Description: as §1, §2

[8] = system: Staphylococcus aureus; assay: as above; format: cell-based; settings: 16 h, 1 strain, Brain Heart Infusion, 37° C., 16-18 hours, read-out: Inhibition
Description: as §1, §2

[9] = system: Streptococcus hemolyticus; assay: as above; format: cell-based
Description: as §1, §2

[10] = system: Escherichia coli; assay: In vivo testing in infected mice; settings: IP challenge 79 LD50, read-out: Activity (CD50)
Description: (§3) In vivo testing of U-44,590 in mice infected with selected microorganisms is as follows: […]

[11] = system: Proteus mirabilis; assay: In vivo testing in infected mice; settings: IP challenge 1259 LD50, read-out: Activity (CD50)
Description: as §3

[12] = system: Proteus vulgaris; assay: In vivo testing in infected mice
Description: as §3

[13] = system: Salmonella flexneri; assay: In vivo testing in infected mice; settings: IP challenge 40 LD50, read-out: Activity (CD50)
Description: as §3

[14] = system: Streptococcus hemolyticus; assay: In vivo testing in infected mice; settings: Streptococcus pyogenes, Oral route, IP challenge 100 LD50, read-out: Activity (CD50)
Description: as §3

[15] = system: Herpes simplex virus; assay: Antiviral activity in mice inoculated intravenously with Herpes simplex virus; format: in vivo; settings: 400, 200 and 100 mg./kg./dose subcutaneously, four times daily, days 0-4; 40 LD50 virus intravenously
Description: The following is an example of the antiviral activity of antibiotic U-44,590. The antibiotic is administered subcutaneously to mice which are inoculated intravenously with Herpes simplex virus. Treatment is initiated 2 hours prior to viral infection and is followed by treatment four times daily for five consecutive days. A detailed account of the materials and methods and results are as follows:
Male mice, weighing approximately 20 gm. each, are divided into 4 groups of 20. Group 1 is treated with saline, Group 2 with 400 mg./kg./dose (mkd) U-44,590, Group 3 with 200 mkd U-44,590, and Group 4 with 100 mkd U-44,590. The antibiotic is dissolved in saline and administered subcutaneously in the nape of the neck at 8 a.m., 12 noon, 4 p.m., and 8 p.m. on days 0, 1, 2, 3, and 4. Herpes virus at 10^^-1.5 dilution, 0.05 ml/mouse, equivalent to a viral dose of 40 LD50 s, is inoculated into the tail vein at 10 a.m. on day 0. Paralysis and death are recorded daily.
Hind leg paralysis usually preceded death by 1-2 days. All mice died that became paralyzed. Death pattern of the 4 groups, as shown in the curves which follow, illustrates the dose response obtained.

[16] = system: Herpes virus; assay: Activity against DNA viruses (statement); settings: for example, the Herpes virus
[17] = system: Escherichia coli; assay: Antibacterial activity (statement)
[18] = system: Gram-negative and Gram-positive bacteria; assay: Antibacterial activity (statement); settings: for example, Streptococcus hemolyticus, Klebsiella, Salmonella Sp., Serratia marcescens, Pasteurella multocida, Hemophilus Sp., Proteus morgani, Proteus rettgeri
[19] = Solubilities; format: physicochemical

## CN1CN([C@H]2C[C@H](O)[C@@H](CO)O2)C(=O)NC1=O [U-44,590, 1(2-deoxy-β-D-erythro-pentofuranosyl)-5,6-dihydro-5-methyl-s-triazine-2,4(1H,3H)-dione]
[1]
  MIC: 500 µg/mL (≈ 2040 µM)
[2]
  MIC: 125 µg/mL (≈ 510 µM)
[3]
  MIC: > 1000 µg/mL
[4]
  MIC: 62.5 to 250 µg/mL (≈ 255 to 1020 µM)
[5]
  MIC: > 1000 µg/mL
[6]
  MIC: > 1000 µg/mL
[7]
  MIC: 125 µg/mL (≈ 510 µM)
[8]
  MIC: > 1000 µg/mL
[9]
  Activity against Streptococcus hemolyticus: active against Streptococcus hemolyticus
[9]; Streptococcus pyogenes, 16 h, Streptococcus hemolyticus, 1 strain, Brain Heart Infusion, 37° C., 16-18 hours, read-out: Inhibition
  MIC: 15.2 µg/mL (≈ 62 µM)
[10]; Oral route
  ED50: 218 mg/kg
[10]; sc, Subcutaneous route
  ED50: 141 mg/kg
[11]; Oral route
  ED50: 101 mg/kg
[11]; sc, Subcutaneous route
  ED50: 152 mg/kg
[12]; po, IP challenge 79 LD50, read-out: Activity (CD50)
  ED50: < 62.5 mg/kg
[12]; po, IP challenge 150 LD50 (line without organism name below Proteus vulgaris), read-out: Activity (CD50)
  ED50: ~30 mg/kg
[12]; sc, Subcutaneous route, IP challenge 79 LD50, read-out: Activity (CD50)
  ED50: 100 mg/kg
[13]; Oral route
  ED50: 62.5 mg/kg
[13]; sc, Subcutaneous route
  ED50: 38 mg/kg
[14]
  ED50: > 160 mg/kg
[15]
  Death pattern, statistical analysis of the results at day 11: all 3 treated groups are significantly different from the control group (1)
[16]
  Activity against DNA viruses: active against DNA viruses
[17]
  Activity against Escherichia coli: active against Escherichia coil
[18]
  Effect on growth of bacteria: adversely affecting the growth of Gram-negative and Gram-positive bacteria
[19]; in Me2 CO, EtOAc, hydrocarbons, CH2 Cl2 and CHCl3
  Solubility: relatively insoluble
[19]; in water, and lower alcohols, for example, methanol and ethanol
  Solubility: Highly soluble
